The test system of this experiment is Cell Line A549 (human lung cancer epithelial cells). Description: Cell cycle characterization of Taxol-treated A549 cells by image analysis of DAPI-stained DNA. The format is cell-based. The procedure:
FIGS. 14A-14G depict the results of an experiment in which human lung cancer epithelial cells were treated with Taxol and the effect of Taxol on the cell cycle was characterized. The specific cells used in this study were from Cell Line A549 (human lung cancer epithelial cells) (ATCC:CCL-185). Two day staged cell cultures of the A549 cells were trypsinized for five minutes from T175 cm flasks. The cells were then suspended in ten milliliters of RPMI media with ten percent serum and counted using both a hemocytometer and Coulter Counter. The suspension was diluted further in media to ensure that there were 1600 cells per twenty microliters in suspension. The cells were then counted again. Thereafter, they were transferred to a Cell Stir and kept in suspension while being plated into barcoded 384 well plates using a MultiDrop at twenty microliters per well. The plates were transferred to a humidified carbon dioxide incubator to recover for twenty-four hours before the addition of Taxol or DMSO. Prior to imaging the cells were treated with DAPI to stain DNA. Cells from each well were then imaged.
Of relevance to this example, eight wells were treated with Taxol at varying concentrations and eight other “control” wells were treated with DMSO, which is not toxic to the cells under consideration. The concentration of Taxol varied from approximately 0.09 micromolar to 200 micromolar. […] Cells in each of the eight Taxol wells were separately imaged and the total measured intensity in each cell was recorded. As discussed above, the total intensity corresponds to the amount of DNA in each cell. In the histogram, the cell count has been normalized so that the area under each curve was equal to a value of one.
The data used to produce the histogram of FIG. 14B was taken from the same images of the eight Taxol containing wells used to produce the histogram of FIG. 14A. In this histogram, the mitotic discriminator is defined as log2(average intensity) minus log2(area).
The five phases are G1, S, G2, m (telophase), and M (prophase, metaphase, and anaphase). […]

Consider `CC(=O)O[C@H]1C(=O)[C@@]2(C)[C@H]([C@H](OC(=O)c3ccccc3)[C@]3(O)C[C@H](OC(=O)[C@H](O)[C@@H](NC(=O)c4ccccc4)c4ccccc4)C(C)=C1C3(C)C)[C@]1(OC(C)=O)CO[C@@H]1C[C@@H]2O` [Taxol], for which, under “Taxol approximately 0.09 micromolar to 200 micromolar, eight wells, DAPI stain, FIG. 14A”, the “distribution of cells based upon the amount of DNA contained in each cell (log2 total intensity histogram; G1 vs G2 peaks)” value is listed as “arrests cells in the G2 phase”. For the same compound, the “mitotic discriminator (log2(average intensity) minus log2(area)); relative incidence of mitotic vs interphase cells” value (Taxol approximately 0.09 to 200 micromolar, FIG. 14B) was “greatly increase the relative incidence of mitotic cells”. Besides, the “number of objects divided by the average number of DMSO objects ("o" curve; objects correspond to living cells)” value (Taxol approximately 0.09 to 200 micromolar, FIG. 14C) is “decreases with increasing concentration of Taxol”.

The values above are taken from patent US20040071328A1, “Classifying cells based on information contained in cell images” (priority 2003, published 2004).
